# According to patent US12122811B2, “BDNF mimetic peptide amphiphiles” (Northwestern University, priority 2018, dated 2024):
# Positions of bridges follow the written chain, without caps; N, C: chain ends. Non-standard residues stand in square brackets, D forms with d. Residues, ends and D or L forms follow the SMILES beside them. Chains are numbered I, II in the order given. *: point of attachment. PEG6 = NCCOCCOCCOCCOCCOCCOCCC(=O)O; Palmitoyl = CCCCCCCCCCCCCCCC(=O)*
# Tests used:
# cortical neurons [1] = assay: Whole-cell current-clamp (patch clamp) recordings of neurons on PA gels; format: cell-based, mouse; conditions: neurons on gels up to one week; relative to E2 Filler PA
# Protocol: Patch Clamp. Whole-cell current-clamp recordings were made from visually identified primary cultured neurons using inverted Olympus IX51 microscope equipped with a 40× objective. Recording pipettes were made of glass capillaries using a horizontal Sutter P-1000 puller yielding a 3-5 MΩ resistance pipette when filled with standard intracellular solution containing (in mM): 120 K-MeSO4, 10 KCl, 10 HEPES, 10 Na2-phosphocreatine, 4 Mg-ATP, 0.4 Na3-GTP, pH 7.3; 285-290 mOsm. Gels with neurons were continuously perfused with standard oxygenated aCSF bath solution (in mM): 125 NaCl, 26 NaHCO3, 2.5 KCl, 1.25 NaH2PO4, 1 MgSO4, 25 glucose, 2 CaCl2, pH 7.4 at 32-34° C. Whole-cell current-clamp data was acquired using an […] amplifier (Molecular Devices, USA) and digitized at 10 kHz (filtered at 3 kHz) with the neurons held at −65 mV. Resting membrane potential was measured immediately after breaking into the cell. Input resistance was calculated as the slope of the voltage-current curve using 500 ms current steps from −50 pA to 30 pA at 10 pA steps. There were no differences in resting membrane potentials or input resistance between the three groups. […] AP threshold was calculated where the first derivative of the up phase of the trace equals 5 mV/ms. […] Data was analyzed using MATLAB protocols designed specifically for these experiments.
# cortical neurons [2] = assay: Infiltration and maturation of cortical neurons on 3D PA gel scaffolds; format: cell-based, mouse; conditions: neurons on gels, one week
# Protocol: Gels were made using annealed PAs prepared with methods described herein 1. BDNF native protein or BDNF peptide were incorporated by mixing at 10 nM or 0.5 uM respectively, with E2 Filler PA gel at 1 wt % while it was in its liquid state. Silicon isolators with adhesive (Invitrogen) were placed on PDL coated glass coverslips. 70 μL of PA liquid was pipetted into the circular silicon well and a Transwell insert was placed flush with the top of the well of the silicon insert. This step ensured a flat, even thickness for all gels. Gelling solution comprised of 125 mM NaCl, 3 mM KCl, and 25 mM CaCl2 was pipetted into the Transwell insert and allowed to slowly soak down into the material from the top. The insert prevented the gel from swelling more than the thickness of the silicon isolator. All gels were incubated at 37° C. for 5 min before removing the Transwell insert.
# Infiltration Study. Gels were prepared as described in 2.1.2. Gels were then rinsed with media one time before cells were seeded on top at a density of approximately 42,000 cells/well. Cells were cultured for one week in vitro. Half of the gels were analyzed by patch clamp analysis (see section 3.4.9. Other gels were fixed with 4% PFA to perform infiltration studies. Cell were stained for MAP2, TUJ-1 and DAPI using immunocytochemistry methods described previously. Confocal microscopy was used to make z-stack reconstructions of each gel. The MultiMeasure function in the ROI manager of ImageJ was used to measure the depth of pixels for each channel which was then plotted as intensity vs depth in the gel. The average intensity of MAP2 was measured by averaging the mean intensities obtained from maximum intensity projections of z-stacks images of gels.
compound,measurement,setting,value
"CCCCCCCCCCCCCCCC(=O)N[C@H](C(=O)N[C@H](C(=O)N[C@@H](C)C(=O)N[C@@H](C)C(=O)N[C@@H](CCC(=O)O)C(=O)N[C@@H](CCC(=O)O)C(=O)N[C@@H](CCC(=O)O)C(=O)N[C@@H](CCC(=O)O)C(=O)NCCOCCOCCOCCOCCOCCOCCC(=O)NCCCC[C@@H]1NC(=O)[C@H]2CCCN2C(=O)[C@H](CCCNC(=N)N)NC(=O)[C@H](CCCCN)NC(=O)[C@H](CCCCN)NC1=O)C(C)C)C(C)C [BDNF PA, RKK(aK)(dP)-(PEG6 Spacer)-EEEEAAVV-C16 (SEQ ID NO: 5)] (I: Palmitoyl-VVAAEEEE[PEG6] / II: cyclo(KKKR[dP]); amide I:C-II:1)",number of action potentials,cortical neurons [1],higher number of action potentials
same,distance that neurites infiltrated from the top of the scaffold,cortical neurons [2],179.7±6.0 μm
same,infiltration distance relative to all the other conditions,cortical neurons [2],nearly four-and-a-half times higher
same,normalized average of MAP2 intensity,cortical neurons [2],0.64±0.15
